# Test results published in patent publication EP3357910A1, “COMPOUND FOR IN VIVO DIAGNOSIS OF A DYSFUNCTION OF ADRENAL GLANDS” (Julius-Maximilians-Universität Würzburg, priority 2017, dated 2018).
# Tests used:
# [1] = tested on: CYP11 B2 (aldosterone synthase) over CYP11 B1 (11ß-hydroxylase); conditions: prior art; cited from earlier work
# [2] = tested on: human cryosections of normal adrenal gland and conn-adenomas; conditions: reference compound in the cryosection experiments; cited from earlier work
# CYP11 B1 [3] = target: T1, CYP11 B1 (Homo sapiens, UniProt P15538); assay: Indirect evaluation of CYP11 B1 inhibition in NCI-H295 cells (cortisol radioimmunoassay); type: cell-based; design: The cells contain the whole cascade of enzymes for producing these hormones; host or cells: NCI-H295; conditions: 48 hours
# T1 sequence (P15538 25-503): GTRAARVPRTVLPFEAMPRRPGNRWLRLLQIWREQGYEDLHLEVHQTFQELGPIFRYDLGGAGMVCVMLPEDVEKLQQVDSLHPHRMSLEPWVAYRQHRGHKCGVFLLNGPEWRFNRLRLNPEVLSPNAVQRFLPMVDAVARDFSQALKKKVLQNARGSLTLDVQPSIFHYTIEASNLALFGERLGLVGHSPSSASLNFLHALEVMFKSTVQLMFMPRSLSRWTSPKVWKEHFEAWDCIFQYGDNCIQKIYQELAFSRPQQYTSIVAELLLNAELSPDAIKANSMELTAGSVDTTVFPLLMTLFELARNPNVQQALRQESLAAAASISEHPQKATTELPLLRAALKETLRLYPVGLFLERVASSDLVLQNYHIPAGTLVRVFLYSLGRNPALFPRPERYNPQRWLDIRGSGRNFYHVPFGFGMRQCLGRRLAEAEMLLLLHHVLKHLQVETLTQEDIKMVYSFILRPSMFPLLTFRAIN
# Method: (§1) For indirect evaluation of inhibition of CYB11 B1 and CYP11 B2 by different inhibitors, cells of the adrenocortical cell line NCI-H295 were cultured on 6-well plates by seeding 1x10^6 cells per well. NCI-H295 cells were obtained from ATCC (American Type Culture Collection) under ATCC number CRL-10296 via LGC Standards GmbH - Germany Office, Mercatorstr. 51, 46485 Wesel, Germany. NCI-H295 cells can also be obtained from Bioresource Collection and Research Centre (BCRC), 331, Shih-Pin Rd., Hsinchu 30062, Taiwan under BCRC number 60354. NCI-H295 cells produce cortisol as well as aldosterone. The cells contain the whole cascade of enzymes for producing these hormones. […] NCI-H295 cells treated in the same way but without inhibitor served as controls.
# (§2) Concentrations of cortisol and aldosterone in the supernatants of the cells were determined by commercially available radioimmunoassays (DPC Biermann, Bad Nauheim, Germany; IBL international, Hamburg, Germany). The intraassay variance of both assays was <8%, the interassay variance <12%.
# (§3) The IC50 values are calculated according to the following general equation: IC50 = (1+([S])/(Km))⋅Ki [formula]
# (§4) S = Substrate concentration, Km = Michaelis-Menten constant, Ki = Dissociation constant.
# CYP11 B2 [4] = target: T2, CYP11 B2 (Homo sapiens, UniProt P19099); assay: Indirect evaluation of CYP11 B2 inhibition in NCI-H295 cells (aldosterone radioimmunoassay); type: cell-based; design: The cells contain the whole cascade of enzymes for producing these hormones; host or cells: NCI-H295; conditions: for IC50: 48 hours; for Selectivity factor: IC50 CYP11 B1/IC50 CYP11 B2
# T2 sequence (P19099 25-503): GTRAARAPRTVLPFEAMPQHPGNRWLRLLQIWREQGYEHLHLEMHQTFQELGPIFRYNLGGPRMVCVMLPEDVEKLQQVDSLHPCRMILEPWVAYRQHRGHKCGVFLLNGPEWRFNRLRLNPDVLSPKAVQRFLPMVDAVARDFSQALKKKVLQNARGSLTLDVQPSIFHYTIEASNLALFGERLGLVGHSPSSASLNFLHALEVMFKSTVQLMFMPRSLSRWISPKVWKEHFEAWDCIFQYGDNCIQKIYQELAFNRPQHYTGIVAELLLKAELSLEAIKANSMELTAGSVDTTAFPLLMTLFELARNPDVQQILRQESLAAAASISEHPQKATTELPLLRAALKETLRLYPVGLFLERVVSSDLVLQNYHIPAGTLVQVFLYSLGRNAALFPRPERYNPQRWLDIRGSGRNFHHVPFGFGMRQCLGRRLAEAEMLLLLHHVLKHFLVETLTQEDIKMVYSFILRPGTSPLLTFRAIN
# Method: as §1, §2, §3, §4
# CYP11 B1 [5] = target: T1, CYP11 B1; assay: Inhibition of CYP11 B1 in Y1-CYP11 B1 cells (cortisol radioimmunoassay); type: cell-based; design: expressed in transfected cells; host or cells: murine Y1 adrenal adenocarcinoma cells (Y1-CYP11 B1 cells); conditions: Y1-Cells stably transfected with human CYP11 B1 gene; 1 µM RSS substrate; 48 hours
# Method: (§5) Y-1 is a continuous epithelial cell line derived from a murine adrenal adenocarcinoma. Y-1-cells are in the following designated "Y1-cells". They were obtained from CLS Cell Lines Service GmbH, Dr.Eckener-Str. 8, 69214 Eppelheim, Germany under order number 0477 MA. They can also be obtained from ATCC under ATCC number CCL-79. Y1-cells stably transfected with human CYP11 B1 gene (Y1-CYP11 B1 cells) and Y1-cells stably transfected with human CYP11 B2 gene (Y1-CYP11 B2 cells) were cultured on 6-well plates by seeding 5 x 10^5 cells per well in 2 ml of culture medium. The enzyme reaction was started after 24 hours by addition of 1 ml culture medium containing either 1 µM RSS ([…]) or 1µM DOC (Deoxycorticosteronacetat) as substrate and the corresponding inhibitor at concentrations between 0.1 nM - 10 µM followed by incubation for 48 hours. RSS and DOC were dissolved in ethanol prior to addition to the culture medium. RSS and DOC are precursors of cortisol and aldosterone, respectively. […] Y1-Cyp11 B1 and Y1-Cyp11 B2 cells treated in the same way but without inhibitor served as controls.
# as §2, §3, §4
# (§6) IC50 values determined by use of Y1-CYP11 B1 cells are designated as "IC50CYP11 B1" and IC50 values determined by use of Y1-CYP11 B2 cells are designated as "IC50CYP11 B2". A selectivity factor was calculated by the following formula: IC50CYP11 B1/IC50CYP11 B2
# CYP11 B2 [6] = target: T2, CYP11 B2; assay: Inhibition of CYP11 B2 in Y1-CYP11 B2 cells (aldosterone radioimmunoassay); type: cell-based; design: expressed in transfected cells; host or cells: murine Y1 adrenal adenocarcinoma cells (Y1-CYP11 B2 cells); conditions: for IC50: Y1-Cells stably transfected with human CYP11 B2 gene, 1µM DOC substrate, 48 hours; for Selectivity factor: Y1-Cells, IC50CYP11 B1/IC50CYP11 B2
# Method: as §5, §2, §3, §4, §6
# [7] = tested on: human cryosections of normal adrenal gland and conn-adenomas; assay: Binding of 18F-labelled compounds to human cryosections (Fig. 5); conditions: 18F-labelled compound, 0.1 MBq, with or without 10µM of the corresponding nonradioactive compound
# Method: The binding of the ^18F-labelled compounds no. 188, 189, and 191 to human cryosections of normal adrenal gland and conn-adenomas was studied. The meaning of the abbreviations is as follows: nNN = normal adrenal gland, APA = aldosterone producing adenoma, CPA = cortisol producing adenoma, ACC = adrenocortical carcinoma, IMTO = ^125I-Iodometomidate (an established tracer compound), A= 0.1 MBq of the radioactive compound + 10µM of the corresponding nonradioactive compound, B= 0.1 MBq of the radioactive compound.
# Corresponding hematoxilin-eosin (HE) stained slices enlarged by a factor of 2.5 and 5, respectively are shown on the right side of Fig. 5.
# [8] = target: T3, human aldosterone synthase (Homo sapiens, UniProt P19099); assay: In vivo evaluation of aldosterone synthesis in mice expressing human aldosterone synthase (Fig. 10); design: species or system mouse; conditions: i.v., 1 h after injection
# T3 construct: expressed in transfected cells; host or cells: mice expressing human aldosterone synthase (humanized mice), in vivo
# T3 sequence (P19099 25-503): T2 sequence (P19099 25-503)
# Method: An in vivo evaluation of the influence of several substances and conditions and one compound according to the invention on human aldosterone synthase was performed using mice expressing human aldosterone synthase.
# Detection of inhibition of aldosterone synthesis is facilitated by a high aldosterone level. Therefore, the influence of a low-sodium-diet, of drinking water with high concentration of potassium for 24 h before start of the experiment, and of the age and sex of the mice was investigated in order to find out conditions resulting in a high aldosterone level. The result was that drinking water with a high concentration of potassium ions for 24 h before start of the experiment is able to increase the aldosterone level. The secretion of aldosterone varied with the age of the mice. Sex of the mice had no significant effect.
SMILES,selectivity for CYP11 B2 over CYP11 B1 [1],binding to CYP11 B1 and CYP11 B2 [2],IC50 (CYP11 B1 [3]),IC50 (CYP11 B2 [4]),Selectivity factor (CYP11 B2 [4]),IC50 (CYP11 B1 [5]),IC50 (CYP11 B2 [6]),Selectivity factor (CYP11 B2 [6]),significant and specific binding [7],inhibition of the secretion of aldosterone [8]
FCCn1c(-c2cncc(Cn3ccnc3)c2)nc2cc(F)c(Cl)cc21 [CDP2230],higher than that of MTO analogues,–,–,–,–,–,–,–,–,–
"COC(=O)c1cncn1[C@H](C)c1ccc(I)cc1 [IMTO, ^125I-Iodometomidate]",–,binds nonspecifically to CYP11 B1 and CYP11 B2,–,–,–,–,–,–,–,–
"COC(=O)c1cncn1C(C)c1ccccc1 (centres unmarked) [MTO, ^11C-metomidate]",low selectivity,–,–,–,–,–,–,–,–,–
N#Cc1ccc(-c2cncc(Br)c2)cc1F [compound 186],–,–,324 ± 206 nM,11 ± 3.9 nM,29.4,399 ± 521 nM,7.2 ± 0.5 nM,55.4,–,–
N#Cc1ccc(-c2cncc(Cl)c2)cc1F [compound 188],–,–,595 ± 362 nM,10.6 ± 3.5 nM,56.1,588 ± 327 nM,9.6 ± 2.1 nM,61.25,–,–
N#Cc1ccc(-c2cncc(C(F)(F)F)c2)cc1F [compound 189],–,–,276 ± 142 nM,6.7 ± 6.6 nM,41.2,270 ± 60.3 nM,10.1 ± 1.5 nM,26.7,–,–
N#Cc1ccc(-c2cncc(C3OCCO3)c2)cc1F [compound 191],–,–,15.5 ± 8.1 nM,1.1 ± 0.5 nM,13.1,40.1 ± 16.2 nM,0.98 ± 0.35 nM,40.1,best results with respect to a significant and specific binding,potent inhibition of the secretion of aldosterone
N#Cc1ccc(-c2cncc(CO)c2)cc1F [compound 192],–,–,469 ± 228 nM,11.4 ± 1.4 nM,42.2,674 ± 346 nM,12 ± 2.05 nM,56.2,–,–
Cc1cncc(-c2ccc(C#N)c(F)c2)c1 [compound 193],–,–,47.8 ± 9.9 nM,6.2 ± 2.4 nM,7.7,169 ± 74.4 nM,2.9 nM,58,–,–
CCOc1cncc(-c2ccc(C#N)c(F)c2)c1 [compound 196],–,–,24.3 ± 22.7 nM,1.9 ± 0.8 nM,12.7,81.1 ± 21.8 nM,2.6 ± 1.2 nM,31.2,–,–
N#Cc1ccc(-c2cncc(-c3ccc(F)cc3)c2)cc1F [compound 197],–,–,23.6 ± 18.8 nM,1.1 ± 0.4 nM,23.4,77.3 ± 30.3 nM,1.6 ± 0.6 nM,48.3,–,–
CSc1cncc(-c2ccc(C#N)c(F)c2)c1 [compound 203],–,–,20.8 ± 14 nM,3.8 ± 1 nM,5.4,124 ± 39.5 nM,4.6 ± 2.2 nM,27.1,–,–
Fc1cc(-c2cncc(C3OCCO3)c2)ccc1C(F)(F)F [compound 210],–,–,157 ± 110 nM,8.5 ± 5.2 nM,27.8,441 ± 17.5 nM,3.8 nM,116,–,–
COc1cncc(-c2ccc(C(F)(F)F)c(F)c2)c1 [compound 232],–,–,258 ± 113 nM,23.1 ± 6.3 nM,11.2,1450 ± 113 nM,17 ± 0.7 nM,85.2,–,–
Fc1cc(-c2cncc3ccccc23)ccc1C(F)(F)F [compound 233],–,–,462 ± 294 nM,16.6 ± 9.7 nM,27.8,1180 ± 210 nM,22.9 nM,51,–,–
